Measured values reported in US20260327224A1, “SUBSTITUTED PYRIDOTRIAZOLE COMPOUND, AND PREPARATION METHOD THEREFOR AND USE THEREOF” (ORIGIANT PHARMACEUTICAL CO., LTD., priority 2023, published 2026).

System: HT-29 cells (colon cancer cells)
Experiment: In vitro assay for protection of HT-29 cells from necroptosis (TNFα/Smac mimetic/Z-VAD-FMK, CCK-8)
Format: cell-based
Details: Homo sapiens, Protective Activity Against Necroptosis, TNFα/Smac mimetic/Z-VAD-FMK induced, 24 h
From the text: Z′=1−3(SDmin+SDmax)/(AVEmax−AVEmin) • wherein: • Min is the positive control Data, and Max is the negative control DMSO Data. • SD is the standard deviation, and AVE is the average. In Vitro Assay for Protection of HT-29 Cells from Necroptosis:
1) Experimental Materials
DMEM medium was purchased from Gibco; penicillin-streptomycin was purchased from Hyclone; TNFα was purchased from Peprotech; Smac mimetic and Z-VAD-FMK were purchased from Selleck; and CCK-8 was purchased from Medchem Express.
HT-29 cells (colon cancer cells) were cultured in DMEM+10% FBS+penicillin/streptomycin. For the experiment, HT-29 cells in the logarithmic phase were collected and seeded into 96-well plates at a specific density (typically 8×10^3 cells/well for adherent cells). The cells were cultured overnight in an incubator at 37° C. with 5% CO2. On the following day, the test compound was diluted with culture medium to the corresponding concentrations and added into the 96-well plate, with 3 replicate wells for each sample. A solvent control group and a blank control group containing only culture medium were set simultaneously. The spiked cells were induced with a combination of TNFα/Smac mimetic/Z-VAD-FMK for 24 h. Subsequently, 10 μL of CCK8 solution was added to each well, and the cells were incubated in an incubator for 1-3 h. Absorbance was measured at […] using a microplate reader, and the cell necrosis protection rate of the drug was calculated using the following formula:
Cell necrosis protection rate=[(X−C0)/(C−C0)]×100% • where C, C0, and X represent the average absorbance values of the solvent control group, the blank control group, and the drug treatment group, respectively. Finally, a cell viability curve was fitted using Graphpad Prism 5.0 software, and the EC50 value of the test compound for inhibiting necroptosis was calculated.

Structure (SMILES) | EC50 [nM]
C[C@H](NC(=O)c1cn(C)c2ccc(-c3ccn4nc(NC(=O)CN5CC(C#N)C5)nc4c3)cc12)c1ccc(F)cc1 [Compound 34] | < 1
C[C@H](NC(=O)c1cn(C)c2ccc(-c3ccn4nc(NC(=O)CN5CCC(C#N)CC5)nc4c3)cc12)c1ccc(F)cc1 [Compound 23] | < 1
C[C@@H]1CN(CC(=O)Nc2nc3cc(-c4ccc5c(c4)c(C(=O)N[C@@H](C)c4ccc(Cl)cc4)cn5C)ccn3n2)C[C@H](C)O1 [Compound 85] | < 1
C[C@@H](c1ccc(F)cc1)N(C)C(=O)c1cn(C)c2ccc(-c3ccn4nc(NC(=O)CN(C)C)nc4c3)cc12 [Compound 174] | < 1
C[C@H](NC(=O)c1cn(C)c2ccc(-c3ccn4nc(NC(=O)C(=O)N5CCOCC5)nc4c3)cc12)c1ccc(F)cc1 [Compound 9] | < 1
Cn1cc(C(=O)N[C@H]2CCCc3ccc(F)cc32)c2cc(-c3ccn4nc(NC(=O)[C@H]5CCCO5)nc4c3)ccc21 [Compound 146] | 10 to 100
Cn1cc(C(=O)N2CC(F)CC2c2ccc(F)cc2)c2cc(-c3ccn4nc(NC(=O)C5CC5)nc4c3)ccc21 (centres unmarked) [Compound 156] | < 1
Cn1nc(C(=O)N[C@@H](CF)c2ccc(F)cc2)c2cc(-c3ccn4nc(NC(=O)C5CCOC5)nc4c3)ccc21 (some centres unmarked) [Compound 188] | < 1
C[C@H](NC(=O)c1cn(C)c2ccc(-c3ccn4nc(NC(=O)CN5C6CC7CC(C6)C(O)C5C7)nc4c3)cc12)c1ccc(F)cc1 (some centres unmarked) [Compound 59] | < 1
COCCn1cc(C(=O)N[C@@H](CF)c2ccc(F)cc2)c2cc(-c3ccn4nc(NC(=O)CC#N)nc4c3)ccc21 [Compound 215] | 10 to 100
C[C@H](NC(=O)c1cn(C)c2ccc(-c3ccn4nc(NC(=O)CNCC5CC5)nc4c3)cc12)c1ccc(F)cc1 [Compound 66] | < 1
Cn1cc(C(=O)N2CCC[C@H]2c2ccc(F)cc2)c2cc(-c3ccn4nc(NC(=O)C5CCCO5)nc4c3)ccc21 (some centres unmarked) [Compound 154] | < 1
C[C@H](NC(=O)c1cn(C)c2ccc(-c3ccn4nc(NC(=O)CN5CCSCC5)nc4c3)cc12)c1ccc(F)cc1 [Compound 43] | < 1
Cn1cc(C(=O)N[C@@H]2C[C@H]2c2ccc(F)c(F)c2)c2cc(-c3ccn4nc(NC(=O)[C@H]5CCCO5)nc4c3)ccc21 [Compound 184] | 100 to 1000
CC(=O)Nc1nc2cc(-c3ccc4c(c3)c(C(=O)N[C@@H]3C[C@H]3c3ccc(F)c(F)c3)cn4C)ccn2n1 [Compound 125] | 1000 to 10000
Cn1cc(C(=O)N[C@@H](CF)c2ccc(F)cc2)c2cc(-c3ccn4nc(NC(=O)C5(C)CCC5)nc4c3)ccc21 [Compound 105] | 10 to 100
COC(C)C(=O)Nc1nc2cc(-c3ccc4c(c3)c(-c3nncn3C(C)c3ccc(F)cc3)cn4C)ccn2n1 (centres unmarked) [Compound 216] | 10 to 100
C[C@H](NC(=O)c1cn(C)c2ccc(-c3ccn4nc(NC(=O)CN(C)C)nc4c3)cc12)c1ccc(F)cc1 [Compound 40] | < 1
CC(C)NCC(=O)Nc1nc2cc(-c3ccc4c(c3)c(C(=O)N[C@@H](C)c3ccc(F)cc3)cn4C)ccn2n1 [Compound 67] | < 1

Structure (SMILES) | EC50 [nM]
COCCn1cc(C(=O)N[C@@H](CF)c2ccc(F)cc2)c2cc(-c3ccn4nc(NC(=O)N5CCOCC5)nc4c3)ccc21 [Compound 214] | 10 to 100
CC(=O)Nc1nc2cc(-c3ccc4c(c3)c(C(=O)NC3CCc5cc(F)ccc53)cn4C)ccn2n1 (stereo in doubt) [Compound 127] | 1000 to 10000
Cn1cc(C(=O)Nc2nc3cc(-c4ccc5c(c4)c(C(=O)N[C@@H](CF)c4ccc(F)cc4)cn5C)ccn3n2)cn1 [Compound 111] | 1 to 10
C[C@H](NC(=O)c1cn(C)c2ccc(-c3ccn4nc(NC5CCOC5)nc4c3)cc12)c1ccc(F)cc1 (some centres unmarked) [Compound 107] | < 1
C[C@H](NC(=O)c1cn(C)c2ccc(-c3ccn4nc(NC(=O)N5CCOCC5)nc4c3)cc12)c1cccc(F)c1 [Compound 118] | < 1
Cn1cc(C(=O)Nc2nc3cc(-c4ccc5c(c4)c(C(=O)N4CCOC[C@@H]4c4ccc(F)cc4)cn5C)ccn3n2)cn1 [Compound 149] | < 1
CC(c1ccc(F)cc1)n1cnc(-c2cn(C)c3ccc(-c4ccn5nc(NC(=O)C6CC6F)nc5c4)cc23)n1 (centres unmarked) [Compound 209] | 100 to 1000
Cn1cc(C(=O)N[C@@H](CF)c2ccc(F)cc2)c2cc(-c3ccn4nc(NC(=O)C5CC5F)nc4c3)ccc21 (some centres unmarked) [Compound 113] | 1 to 10
C[C@H](NC(=O)c1cn(C)c2ccc(-c3ccn4nc(NC(=O)CN5CC[C@H](O)C5)nc4c3)cc12)c1ccc(F)cc1 [Compound 41] | < 1
COCCNCC(=O)Nc1nc2cc(-c3ccc4c(c3)c(C(=O)N[C@@H](C)c3ccc(F)cc3)cn4C)ccn2n1 [Compound 68] | < 1
C[C@H](NC(=O)c1cn(C)c2ccc(-c3ccn4nc(NC(=O)CN5CCC[C@@H](O)C5)nc4c3)cc12)c1ccc(F)cc1 [Compound 49] | 1 to 10
Cn1cc(C(=O)N[C@@H](CF)c2ccc(F)cc2)c2cc(-c3ccn4nc(NC(=O)C#N)nc4c3)ccc21 [Compound 102] | < 1
C[C@H](NC(=O)c1cn(C)c2ccc(-c3ccn4nc(NC(=O)C5(C(=O)O)CC5)nc4c3)cc12)c1ccc(F)cc1 [Compound 31] | 10 to 100
Cn1cc(C(=O)Nc2nc3cc(-c4ccc5c(c4)c(C(=O)N4CCC[C@H]4c4ccc(F)cc4)cn5C)ccn3n2)cn1 [Compound 207] | < 1
Cn1cc(C(=O)N[C@@H](CF)c2ccc(F)cc2)c2cc(-c3ccn4nc(NC(=O)C5CC5)nc4c3)ccc21 [Compound 114] | < 1
C[C@H](NC(=O)c1cn(C)c2ccc(-c3ccn4nc(NC(=O)CN5CC(O)CC5=O)nc4c3)cc12)c1ccc(F)cc1 (stereo in doubt) [Compound 3] | 10 to 100
C[C@H](NC(=O)c1cn(C)c2ccc(-c3ccn4nc(NC(=O)[C@H]5CCCO5)nc4c3)cc12)c1cccc(F)c1 [Compound 119] | < 1
C[C@H](NC(=O)c1cn(C)c2ccc(-c3ccn4nc(NC(=O)c5cnn(C)c5)nc4c3)cc12)c1cccc(F)c1 [Compound 120] | < 1
C[C@H](NC(=O)c1cn(C)c2ccc(-c3ccn4nc(NC(=O)CN5CC[C@@H](CO)C5)nc4c3)cc12)c1ccc(F)cc1 [Compound 62] | < 1

Structure (SMILES) | EC50 [nM]
C[C@H](NC(=O)c1cn(C)c2ccc(-c3ccn4nc(NC(=O)c5ccnc(F)c5)nc4c3)cc12)c1ccc(F)cc1 [Compound 115] | < 1
CC(c1ccc(F)cc1)n1cnc(-c2cn(C)c3ccc(-c4ccn5nc(NC(=O)C6CC6)nc5c4)cc23)n1 (centres unmarked) [Compound 210] | 100 to 1000
C[C@H](NC(=O)c1cn(C)c2ccc(-c3ccn4nc(NC(=O)CN5CCOC(C)(C)C5)nc4c3)cc12)c1ccc(F)cc1 [Compound 18] | < 1
CO[C@@H](C)C(=O)Nc1nc2cc(-c3ccc4c(c3)c(C(=O)N[C@@H](CF)c3ccc(F)cc3)cn4C)ccn2n1 [Compound 98] | < 1
C[C@H](NC(=O)c1cn(C)c2ccc(-c3ccn4nc(NC(=O)CN5CCN(C(=O)C6CC6)CC5)nc4c3)cc12)c1ccc(F)cc1 [Compound 50] | < 1
C[C@H](NC(=O)c1cn(C)c2ccc(-c3ccn4nc(NC(=O)CN5CCOC[C@H]5C)nc4c3)cc12)c1ccc(Cl)cc1 [Compound 81] | < 1
C[C@H](NC(=O)c1cn(C)c2ccc(-c3ccn4nc(NC(=O)CN5CCOC[C@@H]5CO)nc4c3)cc12)c1ccc(F)cc1 [Compound 35] | < 1
C[C@H](NC(=O)c1cn(C)c2ccc(-c3ccn4nc(NC(=O)CN5CCC[C@H](O)C5)nc4c3)cc12)c1ccc(F)cc1 [Compound 7] | < 1
C[C@H](NC(=O)c1cn(C)c2ccc(-c3ccn4nc(NC(=O)CN5CCC(N6CCOCC6)CC5)nc4c3)cc12)c1ccc(F)cc1 [Compound 38] | < 1
C[C@H](NC(=O)c1cn(C)c2ccc(-c3ccn4nc(NC(=O)CN5CCC(F)(F)CC5)nc4c3)cc12)c1ccc(Cl)cc1 [Compound 86] | < 1
CC(c1ccc(F)cc1)n1cnnc1-c1cn(C)c2ccc(-c3ccn4nc(NC(=O)C5CCOC5)nc4c3)cc12 (centres unmarked) [Compound 217] | 10 to 100
Cn1cc(C(=O)Nc2nc3cc(-c4ccc5c(c4)c(C4=NC(c6ccc(F)cc6)CO4)cn5C)ccn3n2)cn1 (centres unmarked) [Compound 213] | 10 to 100
Cn1cc(C(=O)N2CC(F)CC2c2ccc(F)cc2)c2cc(-c3ccn4nc(NC(=O)C5CCCO5)nc4c3)ccc21 (centres unmarked) [Compound 157] | < 1
C[C@H](NC(=O)c1cn(C)c2ccc(-c3ccn4nc(NC(=O)CN5CCC6(CC5)OCCO6)nc4c3)cc12)c1ccc(F)cc1 [Compound 27] | < 1
COC1CCN(CC(=O)Nc2nc3cc(-c4ccc5c(c4)c(C(=O)N[C@@H](C)c4ccc(F)cc4)cn5C)ccn3n2)C1 (some centres unmarked) [Compound 19] | < 1
Cn1cc(C(=O)N2CCOC[C@@H]2c2ccc(F)cc2)c2cc(-c3ccn4nc(NC(=O)[C@H]5CCCO5)nc4c3)ccc21 [Compound 150] | < 1
Cn1cc(C(=O)N2CCOC[C@@H]2c2ccc(F)cc2)c2cc(-c3ccn4nc(NC(=O)C5CC5)nc4c3)ccc21 [Compound 151] | < 1
C[C@H](NC(=O)c1cn(C)c2ccc(-c3ccn4nc(NC(=O)CN5CCCO5)nc4c3)cc12)c1ccc(F)cc1 [Compound 22] | 1 to 10
